According to ChEMBL document CHEMBL1201862, “PubChem BioAssay data set” (2004):
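In this assay, cells in 96-well plates receive the compound at five concentrations for 48 hours. Endpoints are linearly interpolated between the surrounding concentrations. GI50 is the concentration that inhibits growth by half.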 Calls of active or inactive are those of the source. Rule as the data show it: active = GI50 up to about 1.1 µM and inactive = higher.

Experiments:
Assay in all cases: NCI anticancer screen, dose series, 48 h
[1] = system: OVCAR-8
[2] = system: CAKI-1
[3] = system: SF-539
[4] = system: SK-MEL-2
[5] = system: EKVX
[6] = system: UACC-62
[7] = system: 786-0
[8] = system: HL-60
[9] = system: HT-29
[10] = system: SNB-19
[11] = system: SN12C
[12] = system: TK-10
[13] = system: MOLT-4
[14] = system: UACC-257
[15] = system: IGROV-1
[16] = system: MDA-N
[17] = system: M14
[18] = system: UO-31
[19] = system: HCC 2998
[20] = system: SR
[21] = system: A498
[22] = system: SW-620
[23] = system: MDA-MB-435
[24] = system: ACHN
[25] = system: SF-268
[26] = system: U-251
[27] = system: K562
[28] = system: OVCAR-4
[29] = system: Hs-578T
[30] = system: HCT-116
[31] = system: RPMI-8226
[32] = system: HOP-62
[33] = system: NCI/ADR-RES
[34] = system: A549
[35] = system: SF-295
[36] = system: COLO 205
[37] = system: PC-3
[38] = system: KM12
[39] = system: LOX IMVI
[40] = system: RXF 393
[41] = system: OVCAR-3
[42] = system: SNB-75
[43] = system: MDA-MB-231
[44] = system: NCI-H460
[45] = system: SK-OV-3
[46] = system: SK-MEL-28
[47] = system: SK-MEL-5
[48] = system: HOP-92
[49] = system: NCI-H226
[50] = system: NCI-H522
[51] = system: MCF7
[52] = system: DU-145
[53] = system: NCI-H23
[54] = system: BT-549
[55] = system: OVCAR-5
[56] = system: Malme-3M
[57] = system: HCT-15
[58] = system: T47D
[59] = system: CCRF-CEM

Clc1ccc(COc2ccccc2/C=N/c2c(-c3ccco3)nc3ccccn23)c(Cl)c1
GI50 [1]: 26.5 µM (inactive)
GI50 [2]: 32.5 µM (inactive)
GI50 [3]: 21.1 µM (inactive)
GI50 [4]: 20.2 µM (inactive)
GI50 [5]: 17.4 µM (inactive)
GI50 [6]: 33.3 µM (inactive)
GI50 [7]: 28.2 µM (inactive)
GI50 [8]: 27 µM (inactive)
GI50 [9]: 31.9 µM (inactive)
GI50 [10]: 44.1 µM (inactive)
GI50 [11]: 25.8 µM (inactive)
GI50 [12]: 36.2 µM (inactive)
GI50 [13]: 31.9 µM (inactive)
GI50 [14]: 39.1 µM (inactive)
GI50 [15]: 25.2 µM (inactive)
GI50 [16]: 23 µM (inactive)
GI50 [17]: 26.1 µM (inactive)
GI50 [18]: 39.3 µM (inactive)
GI50 [19]: 95.9 µM (inactive)
GI50 [20]: 10.2 µM (inactive)
GI50 [21]: > 100 µM (inactive)
GI50 [22]: 26.2 µM (inactive)
GI50 [23]: 14.5 µM (inactive)
GI50 [24]: > 100 µM (inactive)
GI50 [25]: 39.3 µM (inactive)
GI50 [26]: 33.7 µM (inactive)
GI50 [27]: 28.4 µM (inactive)
GI50 [28]: 24.9 µM (inactive)
GI50 [29]: 36.9 µM (inactive)
GI50 [30]: 17.5 µM (inactive)
GI50 [31]: 29.9 µM (inactive)
GI50 [32]: 32.9 µM (inactive)
GI50 [33]: 30.6 µM (inactive)
GI50 [34]: > 100 µM (inactive)
GI50 [35]: 39.9 µM (inactive)
GI50 [36]: 38.9 µM (inactive)
GI50 [37]: 39.8 µM (inactive)
GI50 [38]: 36.8 µM (inactive)
GI50 [39]: 17.1 µM (inactive)
GI50 [40]: 20.9 µM (inactive)
GI50 [41]: 37.8 µM (inactive)
GI50 [42]: 23.4 µM (inactive)
GI50 [43]: 20.2 µM (inactive)
GI50 [44]: 71 µM (inactive)
GI50 [45]: > 100 µM (inactive)
GI50 [46]: 66.4 µM (inactive)
GI50 [47]: 15.8 µM (inactive)
GI50 [48]: 13 µM (inactive)
GI50 [49]: 25.7 µM (inactive)
GI50 [50]: > 100 µM (inactive)
GI50 [51]: 12.5 µM (inactive)
GI50 [52]: 25.8 µM (inactive)
GI50 [53]: 32.3 µM (inactive)
GI50 [54]: 30 µM (inactive)
GI50 [55]: > 100 µM (inactive)
GI50 [56]: 36.5 µM (inactive)
GI50 [57]: 23.3 µM
GI50 [58]: 24.7 µM (inactive)
GI50 [59]: 12.9 µM (inactive)

CN(CCNC(=O)c1n[nH]c2c1ccc1ccccc12)CCNC(=O)c1n[nH]c2c1ccc1ccccc12
GI50 [1]: 2.05 µM (inactive)
GI50 [2]: 8.73 µM (inactive)
GI50 [3]: 1.79 µM (inactive)
GI50 [4]: 8.2 µM (inactive)
GI50 [5]: 1.63 µM (inactive)
GI50 [6]: 1.92 µM (inactive)
GI50 [7]: 1.75 µM (inactive)
GI50 [8]: 2.75 µM (inactive)
GI50 [9]: 2.01 µM (inactive)
GI50 [10]: 1.89 µM (inactive)
GI50 [11]: 1.8 µM (inactive)
GI50 [12]: 2.25 µM (inactive)
GI50 [13]: 2.77 µM (inactive)
GI50 [14]: 24.4 µM (inactive)
GI50 [15]: 1.77 µM (inactive)
GI50 [16]: 1.86 µM (inactive)
GI50 [17]: 1.82 µM (inactive)
GI50 [18]: 7.35 µM (inactive)
GI50 [19]: 1.91 µM (inactive)
GI50 [20]: 1.78 µM (inactive)
GI50 [21]: 7.28 µM (inactive)
GI50 [22]: 1.84 µM (inactive)
GI50 [23]: 1.79 µM (inactive)
GI50 [24]: 1.83 µM (inactive)
GI50 [25]: 2.14 µM (inactive)
GI50 [26]: 1.93 µM (inactive)
GI50 [27]: 2.26 µM (inactive)
GI50 [28]: 1.82 µM (inactive)
GI50 [29]: 1.96 µM (inactive)
GI50 [30]: 2.13 µM (inactive)
GI50 [31]: 2.18 µM (inactive)
GI50 [32]: 2.11 µM (inactive)
GI50 [33]: > 100 µM (inactive)
GI50 [34]: 2.07 µM (inactive)
GI50 [35]: 1.81 µM (inactive)
GI50 [36]: 1.39 µM (inactive)
GI50 [37]: 2.49 µM (inactive)
GI50 [38]: 2.14 µM (inactive)
GI50 [39]: 1.78 µM (inactive)
GI50 [40]: 1.94 µM (inactive)
GI50 [41]: 2.05 µM (inactive)
GI50 [42]: 1.85 µM (inactive)
GI50 [43]: 1.94 µM (inactive)
GI50 [44]: 2.3 µM (inactive)
GI50 [45]: 4.79 µM (inactive)
GI50 [46]: 1.93 µM (inactive)
GI50 [47]: 1.71 µM (inactive)
GI50 [48]: 3.29 µM (inactive)
GI50 [49]: 4.32 µM (inactive)
GI50 [50]: 1.95 µM (inactive)
GI50 [51]: 1.87 µM (inactive)
GI50 [52]: 2.49 µM (inactive)
GI50 [53]: 1.96 µM (inactive)
GI50 [54]: 20.2 µM (inactive)
GI50 [55]: 1.81 µM (inactive)
GI50 [56]: 1.9 µM (inactive)
GI50 [57]: 13.7 µM
GI50 [58]: 2.42 µM (inactive)
GI50 [59]: 2.2 µM (inactive)
